{"source": "patent US8802439B2", "about": "“Methods for enhancing infectivity of retroviruses” (priority 2009, dated 2014)", "key": {"HIV-1": {"system": "HIV-1", "assay": "HIV-1 replication in human PBLs monitored by p24 ELISA", "format": "cell-based", "procedure": "(E) Replication kinetics of wild-type HIV-1 in human PBLs is enhanced by Pin1 isomerase inhibitors. 2×10^6 PBLs from patient donors were challenged with HIV-1 in the presence (lighter squares, top) or absence (black circles, bottom) of 10 μM PiB, which was added again at day 3 to maintain drug pressure. Replication was monitored by sampling virus concentration in supernatants via p24 ELISA.\nCell Lines and PBMCs: The TZM-bl cell line was obtained through the NIH AIDS Research and Reference Reagent Program, Division of AIDS, NIAID, NIH: TZM-bl from Dr. John C. Kappes, Dr. Xiaoyun Wu and Tranzyme Inc. The sMAGI cell line was obtained through the AIDS Research and Reference Reagent Program, Division of AIDS, NIAID, NIH: CMMT-CD4-LTR-β-Gal (sMAGI) from Dr. Julie Overbaugh. African green kidney BS-C-1 CCL-26, African green kidney CV-1 CCL-70, African green kidney Vero CCL-81, owl kidney OMK(637-69) CRL-1556 and 293T cell lines were obtained from ATCC. To generate PBMCs, human blood from normal healthy donors (General Clinical Research Center, TSR1) was fractionated via gradient centrifugation through histopaque-1077 (Sigma-Aldrich). Peripheral blood lymphocytes (PBLs) were cultured in RPMI supplemented with 20% FBS, 20 U ml^−1 IL-2.\nInfection assays for retrovirus: Single-round infections: CD4^+ TZM-bl 100,000 cells/well/mL were seeded onto 24-well plates 24 hours prior to infection. These cells were infected in quadruplicate to 24-well plates. Infectivity was scored using an enzymatic galactosidase activity assay. Specifically, infected TZM-bl cells were washed and lysed, and 20 μl of lysate was transferred to a 96-well plate for detecting β-galactosidase activity. 100 μl of reaction buffer Galacton-Star substrate (Applied Biosystems, Bedford, Mass.), diluted 1:50, was added to 20 μl of lysate, and the light emission was measured over 1 second in a microplate luminometer after 30 minutes incubation. For human PBMC infections, cells were exposed to 10 ng of wild-type virus for 6 hours, washed, and split into two flasks: one with 10 μM PiB added on day 0 and 3, and one without PiB. Replication was monitored by p24 ELISA. For measuring infectivity of GFP-virus, 50,000 TZMb1, sMAGI, OMK, Vero, BSC-1 and CV-1 cells/well/mL were seeded onto 6-well plates respectively 24 hours prior to infection. Viruses were used to infect in duplicate wells, incubated for 48 hours, washed with PBS, trypsinized, fixed in 1% formaldehyde and subsequently analyzed by fluorescence-activated cell sorting (FACS) for percentage cells infected. […]\nPBLs from human donors were challenged with HIV-1 in the presence (squares) or absence (circles) of 10 μM PiB. Replication was monitored by sampling virus concentration in supernatants via p24 ELISA. […]"}, "bMLV-GFP": {"system": "bMLV-GFP", "assay": "Infectivity of bMLV-GFP virions (RT-normalized), GFP fluorescence via FACS", "format": "cell-based", "procedure": "293T cells were transfected with HIV-1-GFP, SIV-GFP, bMLV-GFP, and nMLV-GFP proviral constructs, and in each case CMV-VSV-G, in the presence or absence of PiB or excess Pin1 as described above. Released virions were normalized via RT assay (EnzChek® Reverse Transcriptase Assay Kit), and infectivity on naïve TZMb1 cells was analyzed by GFP fluorescence via FACS (% cells infected).\nInfection assays for retrovirus: Single-round infections: CD4^+ TZM-bl 100,000 cells/well/mL were seeded onto 24-well plates 24 hours prior to infection. These cells were infected in quadruplicate to 24-well plates. Infectivity was scored using an enzymatic galactosidase activity assay. Specifically, infected TZM-bl cells were washed and lysed, and 20 μl of lysate was transferred to a 96-well plate for detecting β-galactosidase activity. 100 μl of reaction buffer Galacton-Star substrate (Applied Biosystems, Bedford, Mass.), diluted 1:50, was added to 20 μl of lysate, and the light emission was measured over 1 second in a microplate luminometer after 30 minutes incubation. […] Replication was monitored by p24 ELISA. […] Viruses were used to infect in duplicate wells, incubated for 48 hours, washed with PBS, trypsinized, fixed in 1% formaldehyde and subsequently analyzed by fluorescence-activated cell sorting (FACS) for percentage cells infected.\nWe further examined whether blocking Pin1 in producer cells can enhance the infectivity of retroviruses in different primate target cells. […] Infectivity was analyzed by GFP fluorescence via FACS. […] If more cells are infected than the number infected by viruses from untreated cells, this is expressed as a value above 100%—e.g. 2000 cells/10,000 vs 4000 cells/10,000 would be 100% and 200% respectively. […]\nIn addition to human producer cells, we also examined effect of blocked Pin activity on infectivity of viruses produced in mouse cell lines and nonhuman primate cell lines. […] Infectivity was analyzed by GFP fluorescence via FACS. […]"}}}
{"smiles": "CCOC(=O)CN1C(=O)c2ccc3c4c(ccc(c24)C1=O)C(=O)N(CC(=O)OCC)C3=O", "note": "[PiB, diethyl-1,3,6,8-tetrahydro-1,3,6,8-tetraoxobenzo[lmn][3,8]phenanthroline-2,7-diacetate]", "values": [{"measurement": "replication kinetics of wild-type HIV-1 in human PBLs", "setting": "HIV-1; 10 μM PiB, added again at day 3", "result": "enhanced"}, {"measurement": "elevated replication kinetics versus untreated", "setting": "HIV-1; human PBLs, 10 μM PiB, after six days, average of two donors", "result": "seven fold"}, {"measurement": "increase in infectivity versus untreated", "setting": "HIV-1; human PBLs, day 5", "result": "seven-fold"}, {"measurement": "p24 in supernatant at peak replicative differential", "setting": "HIV-1; human PBLs, day 5, untreated 0.2 μg/ml", "result": 1.4, "unit": "µg/mL"}, {"measurement": "infectivity of MLV produced in mouse embryonic fibroblasts", "setting": "bMLV-GFP; MEF producer cells with PiB, TZM target cells", "result": "enhanced infectivity"}, {"measurement": "boost of bMLV-GFP infectivity", "setting": "bMLV-GFP; produced in 293T with PiB, TZMb1 cells", "result": 2, "unit": "fold"}, {"measurement": "infectivity of bMLV-GFP in primate target cell panel", "setting": "bMLV-GFP; produced with PiB, TZM, OMK, sMAGI, Vero, CV-1 target cells", "result": "enhanced infectivity"}]}
